# Assay results taken from patent US20250270213A1, “PI3Ka INHIBITORS” (Synnovation Therapeutics, Inc., priority 2022, published 2025).
# Test system: T47D (PIK3CA H1047R) cells
# Test: pS473 AKT assay with 2.5% FBS, T47D cells
# Format: cell-based
# Details: Homo sapiens, pSer473 AKT, DMEM with 2.5% FBS, 2 h treatment, read-out: T47D_IC50
# How it was run: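 T47D (PIK3CA H1047R) cells were switched to DMEM with 2.5% FBS and exposed to compounds for 2 h. After paraformaldehyde fixation, pSer473 AKT was detected by in-cell ELISA (rabbit primary, HRP anti-rabbit secondary, chemiluminescence); IC50 values were fitted from the concentration series.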
row,IC50 [nM],Compound
1,< 1000,"Cc1cc(C(C)Nc2ccc(Cl)nc2-c2cnn(C)c2)c2c(c1)c(=O)n(C)c1c(C3CCN(C)CC3)ncn21 (centres unmarked) [Compound 134, 9-(1-((6-Chloro-2-(1-methyl-1H-pyrazol-4-yl)pyridin-3-yl)amino)ethyl)-4,7-dimethyl-3-(1-methylpiperidin-4-yl) imidazo[1,5-a]quinazolin-5(4H)-one]"
2,< 1000,"Cc1cc(C(C)Nc2ccc(Cl)nc2-c2cnn(C)c2)c2c(c1)c(=O)n(C)c1c2cnn1C1CCN(C)C1 (centres unmarked) [Compound 135, 9-(1-((6-Chloro-2-(1-methyl-1H-pyrazol-4-yl)pyridin-3-yl)amino)ethyl)-4,7-dimethyl-3-(1-methylpyrrolidin-3-yl)-3,4-dihydro-5H-pyrazolo[3,4-c]isoquinolin-5-one]"
3,< 1000,"Cc1cc(C(C)Nc2ccc(Cl)nc2-c2ncn(C)n2)c2c(c1)c(=O)n(C)c1c2cnn1C1CCN(C)C1 (centres unmarked) [Compound 136, 9-(1-((6-chloro-2-(1-methyl-1H-1,2,4-triazol-3-yl)pyridin-3-yl)amino)ethyl)-4,7-dimethyl-3-(1-methylpyrrolidin-3-yl)-3,4-dihydro-5H-pyrazolo[3,4-c]isoquinolin-5-one]"
4,< 1000,"CCN1CCC(n2ncc3c4c(C(C)Nc5ccc(Cl)nc5-c5ncn(C)n5)cc(C)cc4c(=O)n(C)c32)C1 (centres unmarked) [Compound 137, 9-(1-((6-chloro-2-(1-methyl-1H-1,2,4-triazol-3-yl)pyridin-3-yl)amino)ethyl)-3-(1-ethylpyrrolidin-3-yl)-4,7-dimethyl-3,4-dihydro-5H-pyrazolo[3,4-c]isoquinolin-5-one]"
5,< 1000,"Cc1cc(C(C)Nc2ccc(Cl)nc2-c2ncn(C)n2)c2c(c1)c(=O)n(C)c1c2cnn1C1CCN(CCO)C1 (centres unmarked) [Compound 138, 9-(1-((6-chloro-2-(1-methyl-1H-1,2,4-triazol-3-yl)pyridin-3-yl)amino)ethyl)-3-(1-(2-hydroxyethyl)pyrrolidin-3-yl)-4,7-dimethyl-3,4-dihydro-5H-pyrazolo[3,4-c]isoquinolin-5-one]"
6,< 1000,"[2H]C([2H])([2H])n1c(=O)c2cc(C)cc(C(C)Nc3ccc(Cl)nc3-c3nnn(C)n3)c2c2cnn(C3CCN(C)C3)c21 (centres unmarked) [Compound 139, 9-(1-((6-chloro-2-(2-methyl-2H-tetrazol-5-yl)pyridin-3-yl)amino)ethyl)-7-methyl-4-(methyl-d3)-3-(1-methylpyrrolidin-3-yl)-3,4-dihydro-5H-pyrazolo[3,4-c]isoquinolin-5-one]"
7,< 1000,"[2H]C([2H])([2H])n1c(=O)c2cc(C)cc(C(C)Nc3ccc(Cl)nc3-c3cnn(C)c3)c2c2cnn(C3CCN(CCO)C3)c21 (centres unmarked) [Compound 140, 9-(1-((6-chloro-2-(1-methyl-1H-pyrazol-4-yl)pyridin-3-yl)amino)ethyl)-3-(1-(2-hydroxyethyl)pyrrolidin-3-yl)-7-methyl-4-(methyl-d3)-3,4-dihydro-5H-pyrazolo[3,4-c]isoquinolin-5-one]"
8,< 1000,"Cc1cc(C(C)Nc2ccc(Cl)nc2-c2ccncc2F)c2c(c1)c(=O)n(C)c1c2cnn1C1CCN(C(C)C)C1 (centres unmarked) [Compound 141, 9-(1-((6-chloro-3′-fluoro-[2,4′-bipyridin]-3-yl)amino)ethyl)-3-(1-isopropylpyrrolidin-3-yl)-4,7-dimethyl-3,4-dihydro-5H-pyrazolo[3,4-c]isoquinolin-5-one]"
9,< 1000,"Cc1cc(C(C)Nc2ccc(Cl)nc2-c2cnn(C)c2)c2c(c1)c(=O)n(C)c1c2cnn1C1CCN(CC(F)F)C1 (centres unmarked) [Compound 142, 9-(1-((6-Chloro-2-(1-methyl-1H-pyrazol-4-yl)pyridin-3-yl)amino)ethyl)-3-(1-(2,2-difluoroethyl)pyrrolidin-3-yl)-4,7-dimethyl-3,4-dihydro-5H-pyrazolo[3,4-c]isoquinolin-5-one]"
10,< 1000,"[2H]C([2H])([2H])n1c(=O)c2cc(C)cc(C(C)Nc3ccc(Cl)nc3-c3cnn(C)c3)c2c2cnn(C3CCN(CC(F)F)C3)c21 (centres unmarked) [Compound 143, 9-(1-((6-chloro-2-(1-methyl-1H-pyrazol-4-yl)pyridin-3-yl)amino)ethyl)-3-(1-(2,2-difluoroethyl)pyrrolidin-3-yl)-7-methyl-4-(methyl-d3)-3,4-dihydro-5H-pyrazolo[3,4-c]isoquinolin-5-one]"
11,< 1000,"[2H]C([2H])([2H])n1c(=O)c2cc(C)cc(C(C)Nc3ccc(Cl)nc3-c3cnn(C)c3)c2c2cnn(C3CCN(CC#N)C3)c21 (centres unmarked) [Compound 144, 2-(3-(9-(1-((6-chloro-2-(1-methyl-1H-pyrazol-4-yl)pyridin-3-yl)amino)ethyl)-7-methyl-4-(methyl-d3)-5-oxo-4,5-dihydro-3H-pyrazolo[3,4-c]isoquinolin-3-yl)pyrrolidin-1-yl)acetonitrile]"
12,< 1000,"CCn1c(=O)c2cc(C)cc(C(C)Nc3ccc(Cl)nc3-c3ncn(C)n3)c2c2cnn(C3CCN(CCO)C3)c21 (centres unmarked) [Compound 145, 9-(1-((6-Chloro-2-(1-methyl-1H-1,2,4-triazol-3-yl)pyridin-3-yl)amino)ethyl)-4-ethyl-3-(1-(2-hydroxyethyl)pyrrolidin-3-yl)-7-methyl-3,4-dihydro-5H-pyrazolo[3,4-c]isoquinolin-5-one]"
13,< 1000,"CCn1c(=O)c2cc(C)cc(C(C)Nc3ccc(Cl)nc3-c3ncn(C)n3)c2c2cnn(C3CCN(CC(C)(C)O)C3)c21 (centres unmarked) [Compound 146, 9-(1-((6-chloro-2-(1-methyl-1H-1,2,4-triazol-3-yl)pyridin-3-yl)amino)ethyl)-4-ethyl-3-(1-(2-hydroxy-2-methylpropyl)pyrrolidin-3-yl)-7-methyl-3,4-dihydro-5H-pyrazolo[3,4-c]isoquinolin-5-one]"
14,< 1000,"CCn1c(=O)c2cc(C)cc(C(C)Nc3ccc(Cl)nc3-c3ncn(C)n3)c2c2cnn(C3CCN(C(C)C)C3)c21 (centres unmarked) [Compound 147, 9-(1-((6-chloro-2-(1-methyl-1H-1,2,4-triazol-3-yl)pyridin-3-yl)amino)ethyl)-4-ethyl-3-(1-isopropylpyrrolidin-3-yl)-7-methyl-3,4-dihydro-5H-pyrazolo[3,4-c]isoquinolin-5-one]"
15,< 1000,"CCn1c(=O)c2cc(C)cc(C(C)Nc3ccc(Cl)nc3-c3ncn(C)n3)c2c2cnn(C3CCN(S(C)(=O)=O)C3)c21 (centres unmarked) [Compound 148, 9-(1-((6-Chloro-2-(1-methyl-1H-1,2,4-triazol-3-yl)pyridin-3-yl)amino)ethyl)-4-ethyl-7-methyl-3-(1-(methylsulfonyl)pyrrolidin-3-yl)-3,4-dihydro-5H-pyrazolo[3,4-c]isoquinolin-5-one]"
16,< 1000,"CCn1c(=O)c2cc(C)cc(C(C)Nc3ccc(Cl)nc3-c3ncn(C)n3)c2c2cnn(C3CCN(C(C)=O)C3)c21 (centres unmarked) [Compound 149, 3-(1-acetylpyrrolidin-3-yl)-9-(1-((6-chloro-2-(1-methyl-1H-1,2,4-triazol-3-yl)pyridin-3-yl)amino)ethyl)-4-ethyl-7-methyl-3,4-dihydro-5H-pyrazolo[3,4-c]isoquinolin-5-one]"
17,< 1000,"CCn1c(=O)c2cc(C)cc(C(C)Nc3ccc(Cl)nc3-c3ncn(C)n3)c2c2cnn(C3CCN(C(=O)OC)C3)c21 (centres unmarked) [Compound 150, methyl 3-(9-(1-((6-chloro-2-(1-methyl-1H-1,2,4-triazol-3-yl)pyridin-3-yl)amino)ethyl)-4-ethyl-7-methyl-5-oxo-4,5-dihydro-3H-pyrazolo[3,4-c]isoquinolin-3-yl)pyrrolidine-1-carboxylate]"
18,< 1000,"Cc1cc(C(C)Nc2ccc(Cl)nc2-c2ccncc2F)c2c(c1)c(=O)n(C)c1c2cnn1C1CCN(C(=O)N(C)C)C1 (centres unmarked) [Compound 151, 3-(9-(1-((6-chloro-3′-fluoro-[2,4′-bipyridin]-3-yl)amino)ethyl)-4,7-dimethyl-5-oxo-4,5-dihydro-3H-pyrazolo[3,4-c]isoquinolin-3-yl)-N,N-dimethylpyrrolidine-1-carboxamide]"
19,< 1000,"[2H]C([2H])([2H])n1c(=O)c2cc(C)cc(C(C)Nc3ccc(Cl)nc3-c3cnn(C)c3)c2c2cnn(C3CCN(CCC#N)C3)c21 (centres unmarked) [Compound 152, 3-(3-(9-(1-((6-Chloro-2-(1-methyl-1H-pyrazol-4-yl)pyridin-3-yl)amino)ethyl)-7-methyl-4-(methyl-d3)-5-oxo-4,5-dihydro-3H-pyrazolo[3,4-c]isoquinolin-3-yl)pyrrolidin-1-yl)propanenitrile]"
20,< 1000,"[2H]C([2H])([2H])n1c(=O)c2cc(C)cc(C(C)Nc3ccc(Cl)nc3-c3nnn(C)n3)c2c2cnn(C3CCN(CCC#N)C3)c21 (centres unmarked) [Compound 153, 3-(3-(9-(1-((6-chloro-2-(2-methyl-2H-tetrazol-5-yl)pyridin-3-yl)amino)ethyl)-7-methyl-4-(methyl-d3)-5-oxo-4,5-dihydro-3H-pyrazolo[3,4-c]isoquinolin-3-yl)pyrrolidin-1-yl)propanenitrile]"
21,< 1000,"[2H]C([2H])([2H])n1c(=O)c2cc(C)cc(C(C)Nc3ccc(Cl)nc3-c3cnn(C)c3)c2c2cnn(C3CCN(C(=O)CO)C3)c21 (centres unmarked) [Compound 154, 9-(1-((6-Chloro-2-(1-methyl-1H-pyrazol-4-yl)pyridin-3-yl)amino)ethyl)-3-(1-(2-hydroxyacetyl)pyrrolidin-3-yl)-7-methyl-4-(methyl-d3)-3,4-dihydro-5H-pyrazolo[3,4-c]isoquinolin-5-one]"
22,< 1000,"[2H]C([2H])([2H])n1c(=O)c2cc(C)cc(C(C)Nc3ccc(Cl)nc3-c3cnn(C)c3)c2c2cnn(C3CCN(C(=O)CN(C)C)C3)c21 (centres unmarked) [Compound 155, 9-(1-((6-chloro-2-(1-methyl-1H-pyrazol-4-yl)pyridin-3-yl)amino)ethyl)-3-(1-(dimethylglycyl)pyrrolidin-3-yl)-7-methyl-4-(methyl-d3)-3,4-dihydro-5H-pyrazolo[3,4-c]isoquinolin-5-one]"
23,< 1000,"[2H]C([2H])([2H])n1c(=O)c2cc(C)cc(C(C)Nc3ccc(Cl)nc3-c3cnn(C)c3)c2c2cnn(C3CCN(C(=O)c4ccnn4C)C3)c21 (centres unmarked) [Compound 156, 9-(1-((6-chloro-2-(1-methyl-1H-pyrazol-4-yl)pyridin-3-yl)amino)ethyl)-7-methyl-4-(methyl-d3)-3-(1-(1-methyl-1H-pyrazole-5-carbonyl)pyrrolidin-3-yl)-3,4-dihydro-5H-pyrazolo[3,4-c]isoquinolin-5-one]"
